According to ChEMBL document CHEMBL3045391, “Synthesis and biological evaluation of 5,7-diaryl-4,4-dimethyl-4,5,6,7-tetrahydropyridino[3,4-d]-1,2,3-thiadiazoles” (2007):
Activity calls are given as the source filed them. The calls are words filed in the database; no cut-off is given here.

Legend:
Klebsiella pneumoniae [1] = assay: Antibacterial activity against Klebsiella pneumoniae at 500 ppm after 24 hr by disk diffusion method; assay type: functional; conditions: read-out: IZ
Pseudomonas [2] = assay: Antibacterial activity against Pseudomonas at 100 ppm after 24 hr by disk diffusion method; assay type: functional
Mucor [3] = assay: Antifungal activity against Mucor at 100 ppm after 72 to 96 hr by disk diffusion method; assay type: functional
Escherichia coli [4] = assay: Antibacterial activity against Escherichia coli at 500 ppm after 24 hr by disk diffusion method; assay type: functional; conditions: read-out: IZ
Escherichia coli [5] = assay: Antibacterial activity against Escherichia coli at 100 ppm after 24 hr by disk diffusion method; assay type: functional, organism-based
Staphylococcus aureus [6] = assay: Antibacterial activity against Staphylococcus aureus at 200 ppm after 24 hr by disk diffusion method; assay type: functional; conditions: read-out: IZ
Pseudomonas [7] = assay: Antibacterial activity against Pseudomonas at 500 ppm after 24 hr by disk diffusion method; assay type: functional; conditions: read-out: IZ
Mucor [8] = assay: Antifungal activity against Mucor at 200 ppm after 72 to 96 hr by disk diffusion method; assay type: functional; conditions: read-out: IZ
Klebsiella pneumoniae [9] = assay: Antibacterial activity against Klebsiella pneumoniae at 100 ppm after 24 hr by disk diffusion method; assay type: functional; conditions: read-out: IZ
Nannizzia gypsea [10] = assay: Antifungal activity against Microsporum gypseum at 500 ppm after 72 to 96 hr by disk diffusion method; assay type: functional; conditions: read-out: IZ
Aspergillus flavus [11] = assay: Antifungal activity against Aspergillus flavus at 500 ppm after 72 to 96 hr by disk diffusion method; assay type: functional; conditions: read-out: IZ
Vibrio cholerae [12] = assay: Antibacterial activity against Vibrio cholerae at 200 ppm after 24 hr by disk diffusion method; assay type: functional; conditions: read-out: IZ
Pseudomonas [13] = assay: Antibacterial activity against Pseudomonas at 200 ppm after 24 hr by disk diffusion method; assay type: functional; conditions: read-out: IZ
Nannizzia gypsea [14] = assay: Antifungal activity against Microsporum gypseum at 100 ppm after 72 to 96 hr by disk diffusion method; assay type: functional; conditions: read-out: IZ
Aspergillus flavus [15] = assay: Antifungal activity against Aspergillus flavus at 100 ppm after 72 to 96 hr by disk diffusion method; assay type: functional; conditions: read-out: IZ
Salmonella typhi [16] = assay: Antibacterial activity against Salmonella enterica subsp. enterica serovar Typhi at 500 ppm after 24 hr by disk diffusion method; assay type: functional; conditions: read-out: IZ
Nannizzia gypsea [17] = assay: Antifungal activity against Microsporum gypseum at 200 ppm after 72 to 96 hr by disk diffusion method; assay type: functional; conditions: read-out: IZ
Staphylococcus aureus [18] = assay: Antibacterial activity against Staphylococcus aureus at 500 ppm after 24 hr by disk diffusion method; assay type: functional; conditions: read-out: IZ
Shigella flexneri [19] = assay: Antibacterial activity against Shigella flexneri at 100 ppm after 24 hr by disk diffusion method; assay type: functional; conditions: read-out: IZ
Aspergillus flavus [20] = assay: Antifungal activity against Aspergillus flavus at 200 ppm after 72 to 96 hr by disk diffusion method; assay type: functional; conditions: read-out: IZ
Mucor [21] = assay: Antifungal activity against Mucor at 500 ppm after 72 to 96 hr by disk diffusion method; assay type: functional; conditions: read-out: IZ
Streptococcus [22] = assay: Antibacterial activity against beta-hemolytic Streptococcus at 200 ppm after 24 hr by disk diffusion method; assay type: functional; conditions: read-out: IZ
Escherichia coli [23] = assay: Antibacterial activity against Escherichia coli at 200 ppm after 24 hr by disk diffusion method; assay type: functional; conditions: read-out: IZ
Vibrio cholerae [24] = assay: Antibacterial activity against Vibrio cholerae at 500 ppm after 24 hr by disk diffusion method; assay type: functional; conditions: read-out: IZ
Rhizopus [25] = assay: Antifungal activity against Rhizopus at 100 ppm after 72 to 96 hr by disk diffusion method; assay type: functional; conditions: read-out: IZ
Streptococcus [26] = assay: Antibacterial activity against beta-hemolytic Streptococcus at 500 ppm after 24 hr by disk diffusion method; assay type: functional; conditions: read-out: IZ
Salmonella typhi [27] = assay: Antibacterial activity against Salmonella enterica subsp. enterica serovar Typhi at 100 ppm after 24 hr by disk diffusion method; assay type: functional; conditions: read-out: IZ
Salmonella typhi [28] = assay: Antibacterial activity against Salmonella enterica subsp. enterica serovar Typhi at 200 ppm after 24 hr by disk diffusion method; assay type: functional; conditions: read-out: IZ
Staphylococcus aureus [29] = assay: Antibacterial activity against Staphylococcus aureus at 100 ppm after 24 hr by disk diffusion method; assay type: functional
Rhizopus [30] = assay: Antifungal activity against Rhizopus at 200 ppm after 72 to 96 hr by disk diffusion method; assay type: functional; conditions: read-out: IZ
Klebsiella pneumoniae [31] = assay: Antibacterial activity against Klebsiella pneumoniae at 200 ppm after 24 hr by disk diffusion method; assay type: functional; conditions: read-out: IZ
Shigella flexneri [32] = assay: Antibacterial activity against Shigella flexneri at 200 ppm after 24 hr by disk diffusion method; assay type: functional; conditions: read-out: IZ
Shigella flexneri [33] = assay: Antibacterial activity against Shigella flexneri at 500 ppm after 24 hr by disk diffusion method; assay type: functional; conditions: read-out: IZ
Streptococcus [34] = assay: Antibacterial activity against beta-hemolytic Streptococcus at 100 ppm after 24 hr by disk diffusion method; assay type: functional, organism-based
Rhizopus [35] = assay: Antifungal activity against Rhizopus at 500 ppm after 72 to 96 hr by disk diffusion method; assay type: functional; conditions: read-out: IZ
Vibrio cholerae [36] = assay: Antibacterial activity against Vibrio cholerae at 100 ppm after 24 hr by disk diffusion method; assay type: functional; conditions: read-out: IZ
Rhizopus [37] = assay: Antifungal activity against Rhizopus at 100 units/disk after 72 to 96 hr by disk diffusion method; assay type: functional
Aspergillus flavus [38] = assay: Antifungal activity against Aspergillus flavus at 100 units/disk after 72 to 96 hr by disk diffusion method; assay type: functional
Mucor [39] = assay: Antifungal activity against Mucor at 100 units/disk after 72 to 96 hr by disk diffusion method; assay type: functional
Nannizzia gypsea [40] = assay: Antifungal activity against Microsporum gypseum at 100 units/disc after 72 to 96 hr by disc diffusion method; assay type: functional
Pseudomonas [41] = assay: Antibacterial activity against Pseudomonas at 5 ug/disk after 24 hr by disk diffusion method; assay type: functional; conditions: read-out: IZ
Shigella flexneri [42] = assay: Antibacterial activity against Shigella flexneri at 5 ug/disc after 24 hr by disk diffusion method; assay type: functional; conditions: read-out: IZ
Salmonella typhi [43] = assay: Antibacterial activity against Salmonella enterica subsp. enterica serovar Typhi at 5 ug/disk after 24 hr by disk diffusion method; assay type: functional; conditions: read-out: IZ
Vibrio cholerae [44] = assay: Antibacterial activity against Vibrio cholerae at 5 ug/disc after 24 hr by disk diffusion method; assay type: functional; conditions: read-out: IZ
Klebsiella pneumoniae [45] = assay: Antibacterial activity against Klebsiella pneumoniae at 5 ug/disk after 24 hr by disk diffusion method; conditions: read-out: IZ
Streptococcus [46] = assay: Antibacterial activity against beta-hemolytic Streptococcus at 5 ug/disk after 24 hr by disk diffusion method; assay type: functional; conditions: read-out: IZ
Staphylococcus aureus [47] = assay: Antibacterial activity against Staphylococcus aureus at 5 ug/disc after 24 hr by disk diffusion method; conditions: read-out: IZ

CC1(C)c2nnsc2C(c2ccc(F)cc2)NC1c1ccc(F)cc1 (configuration not stated) was tested, and the zone of inhibition at 500 ppm (Klebsiella pneumoniae [1]) was 22 mm, the “inhibition zone (IZ)” value (Pseudomonas [2]) was “inactive” and the “inhibition zone (IZ)” value (Mucor [3]) was “inactive”. For the same compound, the zone of inhibition at 500 ppm (Escherichia coli [4]) was 17 mm, the “inhibition zone (IZ)” value (Escherichia coli [5]) was “inactive” and the zone of inhibition at 200 ppm (Staphylococcus aureus [6]) was 22 mm. For the same compound, the zone of inhibition at 500 ppm (Pseudomonas [7]) was 17 mm, the zone of inhibition at 200 ppm (Mucor [8]) was 17 mm and the zone of inhibition at 100 ppm (Klebsiella pneumoniae [9]) was 17 mm. The zone of inhibition at 500 ppm (Nannizzia gypsea [10]) was 30 mm, the zone of inhibition at 500 ppm (Aspergillus flavus [11]) was 17 mm and the zone of inhibition at 200 ppm (Vibrio cholerae [12]) was 17 mm. For the same compound, the zone of inhibition at 200 ppm (Pseudomonas [13]) was 17 mm, the zone of inhibition at 100 ppm (Nannizzia gypsea [14]) was 17 mm and the zone of inhibition at 100 ppm (Aspergillus flavus [15]) was 12 mm. For the same compound, the zone of inhibition at 500 ppm (Salmonella typhi [16]) was 12 mm, the zone of inhibition at 200 ppm (Nannizzia gypsea [17]) was 22 mm and the zone of inhibition at 500 ppm (Staphylococcus aureus [18]) was 30 mm. It also gave a zone of inhibition at 100 ppm (Shigella flexneri [19]) of 12 mm, a zone of inhibition at 200 ppm (Aspergillus flavus [20]) of 17 mm and a zone of inhibition at 500 ppm (Mucor [21]) of 17 mm. For the same compound, the zone of inhibition at 200 ppm (Streptococcus [22]) was 17 mm, the zone of inhibition at 200 ppm (Escherichia coli [23]) was 17 mm and the zone of inhibition at 500 ppm (Vibrio cholerae [24]) was 17 mm. It also gave a zone of inhibition at 100 ppm (Rhizopus [25]) of 12 mm, a zone of inhibition at 500 ppm (Streptococcus [26]) of 22 mm and a zone of inhibition at 100 ppm (Salmonella typhi [27]) of 12 mm. For the same compound, the zone of inhibition at 200 ppm (Salmonella typhi [28]) was 12 mm, the “inhibition zone (IZ)” value (Staphylococcus aureus [29]) was “inactive” and the zone of inhibition at 200 ppm (Rhizopus [30]) was 22 mm. It also gave a zone of inhibition at 200 ppm (Klebsiella pneumoniae [31]) of 17 mm, a zone of inhibition at 200 ppm (Shigella flexneri [32]) of 17 mm and a zone of inhibition at 500 ppm (Shigella flexneri [33]) of 17 mm. For the same compound, the “inhibition zone (IZ)” value (Streptococcus [34]) was “inactive”, the zone of inhibition at 500 ppm (Rhizopus [35]) was 22 mm and the zone of inhibition at 100 ppm (Vibrio cholerae [36]) was 12 mm.
OC(Cn1cncn1)(Cn1cncn1)c1ccc(F)cc1F [FLUCONAZOLE] was tested, and the “inhibition zone (IZ)” value (Rhizopus [37]) was 20 mm, the “inhibition zone (IZ)” value (Aspergillus flavus [38]) was 20 mm and the “inhibition zone (IZ)” value (Mucor [39]) was 20 mm. For the same compound, the “inhibition zone (IZ)” value (Nannizzia gypsea [40]) was 20 mm.
O=C(O)c1cn(C2CC2)c2cc(N3CCNCC3)c(F)cc2c1=O [CIPROFLOXACIN] was tested, and the zone of inhibition at 5 µg/disc (Pseudomonas [41]) was 23 mm, the zone of inhibition at 5 µg/disc (Shigella flexneri [42]) was 23 mm and the zone of inhibition at 5 µg/disc (Salmonella typhi [43]) was 22 mm. For the same compound, the zone of inhibition at 5 µg/disc (Vibrio cholerae [44]) was 23 mm, the zone of inhibition at 5 µg/disc (Klebsiella pneumoniae [45]) was 26 mm and the zone of inhibition at 5 µg/disc (Streptococcus [46]) was 28 mm. For the same compound, the zone of inhibition at 5 µg/disc (Staphylococcus aureus [47]) was 25 mm.
